These results are taken from ChEMBL document CHEMBL1201862, “PubChem BioAssay data set” (2004).

Holding throughout (assay): NCI-60 cell line screen, 48 h
Assay [1] deals with OVCAR-4.
Assay [2] deals with ACHN.
Assay [3] deals with HOP-92.
For assay [4], the system named is BT-549.
Assay [5] has as its system SR.
Assay [6] has as its system CCRF-CEM.
Assay [7] concerns Malme-3M.
Assay [8] has as its system SF-268.
Assay [9] concerns K562.
Assay [10] deals with MDA-MB-231.
Assay [11] concerns SF-295.
Assay [12] relates to U-251.
In assay [13] the test system is HCT-116.
For assay [14], the system named is SNB-19.
In assay [15] the test system is OVCAR-5.
Assay [16] relates to MOLT-4.
In assay [17] the test system is LOX IMVI.
The test system of assay [18] is CAKI-1.
For assay [19], the system named is TK-10.
Assay [20] relates to SK-MEL-2.

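The compound was tested at five concentrations on cells cultured in 96-well plates, with a 48-hour exposure period. GI50 is the concentration that inhibits growth by half.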 Active and inactive are the calls of the source. No stated cut-off is given here; in the data, active = GI50 up to about 1.1 µM and inactive = higher.

For `O=C1C(=C(I)I)c2ccccc2-c2ccccc21`, the GI50 in [1] was 2.98 µM (inactive); in [2] it was 2.32 µM (inactive); in assay [3] it was 2.26 µM (inactive); in assay [4], 6.12 µM (inactive); in [5] it was 2.33 µM (inactive); in assay [6], 0.386 µM (active). In addition, the GI50 in [7] is 1.64 µM (inactive); in [8], 6.71 µM (inactive); in [9] it was 1.85 µM (inactive); in assay [10], 2.03 µM (inactive); in assay [11], 16.6 µM (inactive); in [12] it was 5.45 µM (inactive). For the same compound, the GI50 in assay [13] is 2.32 µM (inactive); in assay [14], 14.4 µM (inactive); in assay [15], 5.47 µM (inactive); in assay [16], 0.883 µM (active); in assay [17], 2.08 µM (inactive); in [18] it was 2.82 µM (inactive). The results for the GI50 in [19] and in [20] were 1.88 µM (inactive) and 6.31 µM (inactive), respectively.

With `Clc1ccc(-c2c(C3=NCCCN3)nnn2-c2ccc(Cl)cc2)cc1`, the GI50 in assay [1] was > 65.2 µM (inactive); in assay [2], > 78.2 µM (inactive); in assay [3], 22.8 µM (inactive); in assay [4], > 55.1 µM (inactive); in assay [5], 15.7 µM (inactive); in assay [6] it was 31.8 µM (inactive). In addition, the GI50 is 17.8 µM (inactive) in assay [7]; 48.8 µM (inactive) in assay [8]; 20.9 µM (inactive) in assay [9]; > 48.2 µM (inactive) in assay [10]; 34.7 µM (inactive) in [11]; 49.8 µM (inactive) in assay [12]. In addition, the GI50 in [13] was 28.9 µM (inactive); in assay [14] it was > 68.7 µM (inactive); in assay [15] it was 35.3 µM (inactive); in assay [16] it was 27.4 µM (inactive); in assay [17] it was 21.1 µM (inactive); in assay [18] it was 60.1 µM (inactive). Also, the GI50 in [19] is 40 µM (inactive); in [20] it was 17.4 µM (inactive).

For the compound `Cc1ccnc(Nc2[nH]c(C(=O)c3ccc(Cl)cc3)c(N)c2C(=S)Nc2ccccc2)c1`, the GI50 in assay [1] is 6.01 µM (inactive); in assay [2], 21.7 µM (inactive); in assay [3], 17.2 µM (inactive); in [4] it was 14.2 µM (inactive); in assay [5] it was 12.6 µM (inactive); in assay [6], 25.8 µM (inactive). Moreover, the GI50 in assay [7] was 13.8 µM (inactive); in assay [8] it was 21.1 µM (inactive); in assay [9], 18.3 µM (inactive); in [10], 16.6 µM (inactive); in [11] it was 14.5 µM (inactive); in assay [12] it was 15.1 µM (inactive). Further, the GI50 in [13] was 14.2 µM (inactive); in assay [14] it was 23.4 µM (inactive); in assay [15] it was 21.2 µM (inactive); in assay [16], 10.9 µM (inactive); in [17], 14.8 µM (inactive); in assay [18], 27.9 µM (inactive). Further, the GI50 is 17.2 µM (inactive) in [19] and 8.59 µM (inactive) in [20].

In the case of `C=CCNC1=C2C[C@@H](C)C[C@@H](OC)[C@H](OC(=O)CCCCN)[C@H](C)/C=C(\C)[C@@H](OC(N)=O)[C@H](OC)/C=C\C=C(/C)C(=O)NC(=CC1=O)C2=O`, the GI50 in assay [1] is 15.8 µM (inactive); in assay [2] it was 19.5 µM (inactive); in assay [3], 18.8 µM (inactive); in assay [4] it was 19 µM (inactive); in [5] it was 4.93 µM (inactive); in assay [6], 7.01 µM (inactive). In addition, the GI50 in [7] was 6.71 µM (inactive); in assay [8], 16.9 µM (inactive); in assay [9], 9.62 µM (inactive); in assay [10], 14.2 µM (inactive); in assay [11] it was 15.7 µM (inactive); in assay [12], 10.9 µM (inactive). Further, the GI50 in assay [13] is 13.8 µM (inactive); in assay [14] it was 11.3 µM (inactive); in assay [15], 19 µM (inactive); in assay [16], 9.14 µM (inactive); in assay [17], 12.6 µM (inactive); in assay [18], 18.5 µM (inactive). The figures for the GI50 in assay [19] and in assay [20] were 15 µM (inactive) and 3.72 µM (inactive), respectively.

With `O=C1CSC(c2cccc([N+](=O)[O-])c2)N1c1ccc(-n2c(-c3ccccc3)nc3ccccc3c2=O)cc1` (stereo not given), the GI50 in assay [1] was > 100 µM (inactive); in [2], > 100 µM (inactive); in [3], 94.8 µM (inactive); in assay [4] it was 28.2 µM (inactive); in assay [5] it was 84.3 µM (inactive); in assay [6], > 100 µM (inactive). Moreover, the GI50 in [7] was > 100 µM (inactive); in [8], 99.3 µM (inactive); in assay [9], > 100 µM (inactive); in assay [10] it was > 100 µM (inactive); in assay [11], > 100 µM (inactive); in assay [12], > 100 µM (inactive). The GI50 in assay [13] is > 100 µM (inactive); in [14], > 100 µM (inactive); in assay [15], > 100 µM (inactive); in assay [16], 83.8 µM (inactive); in assay [17] it was > 100 µM (inactive); in assay [18], > 100 µM (inactive). For the same compound, the GI50 in [19] is > 100 µM (inactive); in assay [20], 56.9 µM (inactive).

`Cc1ccc(OC(=O)N2C/C(=C\c3ccccc3)C(=O)/C(=C/c3ccccc3)C2)cc1`: the GI50 in assay [1] is 23.5 µM (inactive); in assay [2] it was 26.7 µM (inactive); in [3], > 100 µM (inactive); in assay [4] it was 29 µM (inactive); in assay [5], 3.43 µM (inactive); in assay [6], 3.2 µM (inactive). The GI50 in assay [7] was > 76 µM (inactive); in [8] it was 34.1 µM (inactive); in assay [9] it was 3.94 µM (inactive); in [10], 26.7 µM (inactive); in [11] it was 18.7 µM (inactive); in [12] it was 9.25 µM (inactive). Besides, the GI50 in assay [13] was 2.13 µM (inactive); in assay [14] it was 43.5 µM (inactive); in assay [15], 76 µM (inactive); in assay [16], 4.07 µM (inactive); in assay [17], 3.29 µM (inactive); in [18], 49.9 µM (inactive). Moreover, the GI50 in assay [19] was 32.1 µM (inactive); in assay [20] it was 42.6 µM (inactive).

In the case of `CC(C)=CCC[C@@H](C)C1=CC(=O)C(C)=C(O)C1=O` [ISOPEREZONE], the GI50 is 7.1 µM (inactive) in assay [1]; 3.85 µM (inactive) in assay [2]; 2.5 µM (inactive) in assay [3]; 5.78 µM (inactive) in [4]; 2.39 µM (inactive) in assay [5]; 1.19 µM (inactive) in assay [6]. Also, the GI50 in assay [7] is 10.2 µM (inactive); in assay [8] it was 10.4 µM (inactive); in [9], 1.58 µM (inactive); in assay [10] it was 6.38 µM (inactive); in assay [11], 14.1 µM (inactive); in assay [12], 8.79 µM (inactive). Moreover, the GI50 in assay [13] was 4.08 µM (inactive); in assay [14] it was 15.9 µM (inactive); in assay [15] it was 14.4 µM (inactive); in assay [16], 1.71 µM (inactive); in assay [17] it was 2.83 µM (inactive); in assay [18] it was 4.95 µM (inactive). Further, the GI50 is 5.11 µM (inactive) in assay [19] and 9.64 µM (inactive) in assay [20].

With `CC(=O)OC(CC(C)C)P1(=O)N(CC(C)(C)C)[C@@H]2CCCC[C@H]2N1CC(C)(C)C` (stereo not given in full), the GI50 in assay [1] was 9.42 µM (inactive); in assay [2] it was 7.28 µM (inactive); in assay [3] it was 2.58 µM (inactive); in assay [4] it was 15.5 µM (inactive); in assay [5], 10.2 µM (inactive); in [6], 13.2 µM (inactive). The GI50 was 9.33 µM (inactive) in assay [7]; 15.1 µM (inactive) in assay [8]; 8.47 µM (inactive) in [9]; 7.24 µM (inactive) in [10]; 7.5 µM (inactive) in assay [11]; 7.08 µM (inactive) in assay [12]. In addition, the GI50 in assay [13] is 5.24 µM (inactive); in [14], 9.29 µM (inactive); in assay [15], 10.2 µM (inactive); in [16], 9.62 µM (inactive); in assay [17], 11.9 µM (inactive); in [18], 12.7 µM (inactive). The GI50 is 11.7 µM (inactive) in [19] and 7.6 µM (inactive) in assay [20].

`O=C(Nc1ccc([N+](=O)[O-])cc1)Nn1cnnc1`: the GI50 in assay [1] was 14.3 µM (inactive); in [2], > 100 µM (inactive); in assay [3], > 100 µM (inactive); in assay [4], 20.8 µM (inactive); in assay [5] it was 31.6 µM (inactive); in [6], > 100 µM (inactive). Moreover, the GI50 in assay [7] is 15.9 µM (inactive); in assay [8], 42 µM (inactive); in [9], > 100 µM (inactive); in assay [10], > 10 µM (inactive); in assay [11], 29 µM (inactive); in [12], 27.5 µM (inactive). Besides, the GI50 in assay [13] is 74.5 µM (inactive); in assay [14], 57 µM (inactive); in assay [15] it was > 100 µM (inactive); in assay [16], > 100 µM (inactive); in assay [17], 96.8 µM (inactive); in assay [18], > 100 µM (inactive). Besides, the figures for the GI50 in assay [19] and in assay [20] were 42.5 µM (inactive) and > 100 µM (inactive), respectively.

`CSc1ccc2c(cc1=O)[C@@H](NC(=O)c1ccc([N+](=O)[O-])cc1)CCc1cc(O)c(O)c(O)c1-2`: the GI50 in assay [1] is 39.8 µM (inactive); in assay [2], 29.7 µM (inactive); in assay [3], > 100 µM (inactive); in [4] it was 60.3 µM (inactive); in [5], 3.99 µM (inactive); in [6] it was 4.58 µM (inactive). The GI50 in [7] is > 100 µM (inactive); in assay [8], 59 µM (inactive); in [9], 18.4 µM (inactive); in assay [10], 28.2 µM (inactive); in [11], 32.8 µM (inactive); in assay [12] it was 34.2 µM (inactive). The GI50 was 34.8 µM (inactive) in assay [13]; 18.4 µM (inactive) in assay [14]; > 100 µM (inactive) in [15]; 30.6 µM (inactive) in [16]; 34.8 µM (inactive) in assay [17]; 21.6 µM (inactive) in assay [18]. The GI50 in assay [19] and in assay [20] was > 100 µM (inactive) in each case.
